# Reference: ChEMBL document CHEMBL6078661, “Alkaloids from Mackinlaya species and synthetic mackinazolinone derivatives: An overview” (Bioorg Med Chem, 2025)
# What was measured:
# [1] = tested on: Naegleria fowleri; experiment: Antiparasitic activity against Naegleria fowleri NF69 (ATCC 30215) assessed as parasitic growth inhibition at 10 uM incubated for 48 hrs by CellTiter-Glo based BioTek microplate reader analysis relative to control; assay type: functional; set-up: scale not given: the % may be the effect or the level left
# [2] = target: Acetylcholinesterase (Homo sapiens, UniProt P22303); experiment: Competitive inhibition of AChE (unknown origin)
# Chain of Acetylcholinesterase (P22303 whole entry): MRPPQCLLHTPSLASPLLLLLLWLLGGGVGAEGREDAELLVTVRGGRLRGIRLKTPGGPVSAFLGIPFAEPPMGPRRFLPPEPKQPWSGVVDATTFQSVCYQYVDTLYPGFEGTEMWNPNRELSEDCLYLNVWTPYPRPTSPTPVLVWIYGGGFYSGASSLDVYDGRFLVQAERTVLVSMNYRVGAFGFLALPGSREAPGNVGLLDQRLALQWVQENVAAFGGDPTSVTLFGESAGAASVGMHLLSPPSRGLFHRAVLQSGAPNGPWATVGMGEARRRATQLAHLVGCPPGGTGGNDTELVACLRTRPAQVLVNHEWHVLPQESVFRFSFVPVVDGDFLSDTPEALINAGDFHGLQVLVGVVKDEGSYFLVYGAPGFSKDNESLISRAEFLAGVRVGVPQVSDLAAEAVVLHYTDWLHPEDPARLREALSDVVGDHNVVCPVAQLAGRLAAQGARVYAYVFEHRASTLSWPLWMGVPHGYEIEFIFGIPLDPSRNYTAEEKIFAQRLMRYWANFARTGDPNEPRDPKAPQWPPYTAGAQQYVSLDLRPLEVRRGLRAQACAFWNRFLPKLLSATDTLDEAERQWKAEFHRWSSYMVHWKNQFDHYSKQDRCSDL
# [3] = tested on: HeLa; experiment: Antiproliferative activity against human HeLa cells assessed as inhibition of cell proliferation; assay type: functional, cell-based
# [4] = tested on: Staphylococcus aureus; experiment: Antibacterial activity against Staphylococcus aureus assessed as diameter of inhibition zone; assay type: functional
# [5] = tested on: Bacillus cereus; experiment: Antibacterial activity against Bacillus cereus assessed as diameter of inhibition zone; assay type: functional
# [6] = tested on: Pseudomonas aeruginosa; experiment: Antibacterial activity against Pseudomonas aeruginosa assessed as diameter of inhibition zone; assay type: functional
# [7] = tested on: Escherichia coli; experiment: Antibacterial activity against Escherichia coli assessed as diameter of inhibition zone; assay type: functional
# [8] = tested on: HeLa; experiment: Cytotoxicity against human HeLa cells assessed as reduction in cell viability; assay type: functional, cell-based
# [9] = tested on: A549; experiment: Cytotoxicity against human A549 cells assessed as reduction in cell viability; assay type: functional
# [10] = tested on: MCF7; experiment: Cytotoxicity against human MCF7 cells assessed as reduction in cell viability; assay type: functional, cell-based
structure (smiles),measurement,setting,value
CN1CCC[C@@H]2c3nc4ccc(Cl)cc4c(=O)n3CC[C@H]21,Activity,[1],98.1%
CN1CCC[C@@H]2c3nc4cc(C(F)(F)F)ccc4c(=O)n3CC[C@H]21,Activity,[1],96.8%
CN1CCC[C@H]2c3nc4ccc(C#N)cc4c(=O)n3CC[C@H]21,Activity,[1],98.2%
O=c1c2nc(-c3ccc(C(F)(F)F)cc3)sc2nc2n1CCCC2,IC50,[2],1670 nM
COc1ccc(/C=C2\CCCn3c2nc2oc(-c4ccc(F)cc4)cc2c3=O)cc1OC,IC50,[3],8460 nM
O=C1c2ccccc2NC2=C(/C=N/c3ccccc3O)CCCN12,diameter of the inhibition zone (DIZ),[4],18 mm
same,diameter of the inhibition zone (DIZ),[5],18 mm
same,diameter of the inhibition zone (DIZ),[6],18 mm
same,diameter of the inhibition zone (DIZ),[7],6 mm
O=c1c2nc(-c3cc(Cl)cc(Cl)c3)oc2nc2n1CCCC2,IC50,[8],3060 nM
same,Activity,[9],0.75 µM
same,IC50,[10],2290 nM
